Structures can show the parent of a compound that is named as a salt.
What follows are compounds tested against T1, human ALK5 (Homo sapiens, UniProt P36897) (assay: ADP-GLO Kinases assay of ALK5 enzymatic activity). Settings: purified recombinant human ALK5, TGFβ1 peptide substrate, pIC50 converted to pKi by Cheng-Prusoff, high ATP protocol (15 μM) for very potent compounds, 25° C.
T1 construct: human ALK5 (recombinant TGF β1 N-term GST-tagged, 80-end); GST (N); purchased
T1 sequence (P36897 80-503 limits assumed): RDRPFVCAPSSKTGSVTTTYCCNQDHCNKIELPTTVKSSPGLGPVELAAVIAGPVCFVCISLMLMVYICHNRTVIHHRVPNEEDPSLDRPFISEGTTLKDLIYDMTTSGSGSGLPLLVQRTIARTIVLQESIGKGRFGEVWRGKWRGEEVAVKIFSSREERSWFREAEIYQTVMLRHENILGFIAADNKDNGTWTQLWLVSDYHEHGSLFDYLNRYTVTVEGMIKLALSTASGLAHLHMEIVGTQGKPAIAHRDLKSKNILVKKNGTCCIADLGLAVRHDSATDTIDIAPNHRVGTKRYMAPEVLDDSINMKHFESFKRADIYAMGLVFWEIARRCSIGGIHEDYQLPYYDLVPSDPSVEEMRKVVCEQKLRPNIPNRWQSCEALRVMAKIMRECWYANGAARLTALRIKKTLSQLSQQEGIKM
Format: biochemical
Experimental: The enzymatic activity of compounds of the present invention was monitored measuring the formation of ADP using the ADP-GLO Kinases assay. Following the incubation of the purified enzyme, a substrate and ATP, the produced ADP was converted into ATP, which in turn was converted into light by Ultra-Glo Luciferase. The luminescent signal positively correlated with ADP amount and kinase activity. […] Compound and ALK5 kinase were mixed and incubated for 15 mins. […] After an incubation of 120 min, the reaction was stopped, and ADP production detected with ADP-Glo kit according to manufacturer's indications. […] After an incubation of 60 min, the kinase reaction was stopped, and ADP production detected with ADP-Glo kit according to manufacturer's indications. All reaction and incubation steps were performed at 25° C. and the assays were performed in 384-well format and validated using a selection of reference compounds tested in 11-point concentration-response curve. […] Results were expressed as pIC50 (negative logarithm of IC50) and subsequently converted to pKi (negative logarithm of […]) using the Cheng-Prusoff equation. The higher the value of pKi, the greater the inhibition of ALK5 activity.
For CN1CCN([C@H]2C[C@@H](C(=O)Nc3cc(Nc4cc(-c5cc(Cl)ccc5F)nnc4OC4CCOC4)ccn3)C2)CC1 (single isomer, unassigned) [Example 113, N-(4-{[6-(5-chloro-2-fluorophenyl)-3-(oxolan-3-yloxy)pyridazin-4-yl]amino}pyridin-2-yl)-3-(4-methylpiperazin-1-yl)cyclobutane-1-carboxamide], the Ki was 126 to 316 pM. In the case of CN1CCN([C@H]2C[C@H](C(=O)Nc3cc(Nc4cc(-c5cc(Cl)ccc5F)nnc4OC4CCOC4)ccn3)C2)CC1 (single isomer, unassigned) [Example 114, N-(4-{[6-(5-chloro-2-fluorophenyl)-3-(oxolan-3-yloxy)pyridazin-4-yl]amino}pyridin-2-yl)-3-(4-methylpiperazin-1-yl)cyclobutane-1-carboxamide], the Ki is reported as 126 to 316 pM. In the case of CN1CCN(CCC(=O)Nc2cc(Nc3cc(-c4cc(Cl)ccc4F)nnc3N(C)CC3(C)CCOC3=O)ccn2)CC1 (single isomer, unassigned) [Example 128, N-(4-{[6-(5-chloro-2-fluorophenyl)-3-{methyl[(3-methyl-2-oxooxolan-3-yl)methyl]amino}pyridazin-4-yl]amino}pyridin-2-yl)-3-(4-methylpiperazin-1-yl)propanamide], the Ki is reported as ≤ 100 pM. With CN(CCC(O)C(F)(F)F)c1nnc(-c2cc(Cl)ccc2F)cc1Nc1ccnc(NC(=O)CN2C[C@@H]3C[C@H]2CN3C)c1 (single isomer, unassigned) [Example 131] the Ki was ≤ 100 pM. CN1CCN([C@H]2C[C@@H](C(=O)Nc3cc(Nc4cc(-c5cc(Cl)ccc5F)nnc4N(C)CC4(C)CCOC4=O)ccn3)C2)CC1 (single isomer, unassigned) [Example 135, Cis N-(4-{[6-(5-chloro-2-fluorophenyl)-3-{methyl[(3-methyl-2-oxooxolan-3-yl)methyl]amino}pyridazin-4-yl]amino}pyridin-2-yl)-3-(4-methylpiperazin-1-yl)cyclobutane-1-carboxamide] was tested, and the Ki was ≤ 100 pM. In the case of CN1CCN([C@H]2C[C@@H](C(=O)Nc3cc(Nc4cc(-c5cc(Cl)ccc5F)nnc4N(C)CC4(C)CCOC4=O)ccn3)C2)CC1 (single isomer, unassigned) [Example 136, Cis N-(4-{[6-(5-chloro-2-fluorophenyl)-3-{methyl[(3-methyl-2-oxooxolan-3-yl)methyl]amino}pyridazin-4-yl]amino}pyridin-2-yl)-3-(4-methylpiperazin-1-yl)cyclobutane-1-carboxamide], the Ki is reported as 126 to 316 pM. In the case of C[C@@H]1CN([C@H]2C[C@@H](C(=O)Nc3cc(Nc4cc(-c5cc(Cl)ccc5F)nnc4N(C)CC4(C)CCOC4=O)ncn3)C2)C[C@H](C)N1 (single isomer, unassigned) [Example 186, N-(6-{[6-(5-chloro-2-fluorophenyl)-3-{methyl[(3-methyl-2-oxooxolan-3-yl)methyl]amino}pyridazin-4-yl]amino}pyrimidin-4-yl)-3-(3,5-dimethylpiperazin-1-yl)cyclobutane-1-carboxamide], the Ki is reported as ≤ 100 pM. For C[C@@H]1CN(CCC(=O)Nc2cc(Nc3cc(-c4cc(Cl)ccc4F)nnc3N(C)CC3(C)CCOC3=O)ncn2)C[C@H](C)N1 (single isomer, unassigned) [Example 198, N-(6-{[6-(5-chloro-2-fluorophenyl)-3-{methyl[(3-methyl-2-oxooxolan-3-yl)methyl]amino}pyridazin-4-yl]amino}pyrimidin-4-yl)-3-(3,5-dimethylpiperazin-1-yl)propanamide], the Ki was ≤ 100 pM. For COCC1(CN(C)c2nnc(-c3cc(Cl)ccc3F)cc2Nc2ccnc(NC(=O)CCN3CCN(C)CC3)c2)CCOC1=O (single isomer, unassigned) [Example 201, N-(4-{[6-(5-chloro-2-fluorophenyl)-3-({[3-(methoxymethyl)-2-oxooxolan-3-yl]methyl}(methyl)amino)pyridazin-4-yl]amino}pyridin-2-yl)-3-(4-methylpiperazin-1-yl)propanamide], the Ki was ≤ 100 pM. COCC1(CN(C)c2nnc(-c3cc(Cl)ccc3F)cc2Nc2ccnc(NC(=O)CCN3CCN(C)CC3)c2)CCOC1=O (single isomer, unassigned) [Example 202, N-(4-{[6-(5-chloro-2-fluorophenyl)-3-({[3-(methoxymethyl)-2-oxooxolan-3-yl]methyl}(methyl)amino)pyridazin-4-yl]amino}pyridin-2-yl)-3-(4-methylpiperazin-1-yl)propanamide] showed a Ki of 126 to 316 pM. In the case of CN1CCCN(CC(=O)Nc2cc(Nc3cc(-c4cc(Cl)ccc4F)nnc3N(C)CC3(C)CCOC3=O)ncn2)CC1 (single isomer, unassigned) [Example 208, N-(6-{[6-(5-chloro-2-fluorophenyl)-3-{methyl[(3-methyl-2-oxooxolan-3-yl)methyl]amino}pyridazin-4-yl]amino}pyrimidin-4-yl)-2-(4-methyl-1,4-diazepan-1-yl)acetamide], the Ki is reported as ≤ 100 pM. CN1CCN(CCC(=O)Nc2cc(Nc3cc(-c4cc(Cl)ccc4F)nnc3N(C)CC3(C)CCOC3=O)ncn2)CC1 (single isomer, unassigned; enantiomer 1) [Example 138, Enantiomer 1 N-(6-{[6-(5-chloro-2-fluorophenyl)-3-{methyl[(3-methyl-2-oxooxolan-3-yl)methyl]amino}pyridazin-4-yl]amino}pyrimidin-4-yl)-3-(4-methylpiperazin-1-yl)propanamide] was tested, and the Ki was ≤ 100 pM. CN1CCN([C@H]2C[C@@H](C(=O)Nc3cc(Nc4cc(-c5cc(Cl)ccc5F)nnc4N(C)CC4(C)CCOC4=O)ncn3)C2)CC1 (single isomer, unassigned; enantiomer 1) [Example 143, Cis Enantiomer 1 N-(6-{[6-(5-chloro-2-fluorophenyl)-3-{methyl[(3-methyl-2-oxooxolan-3-yl)methyl]amino}pyridazin-4-yl]amino}pyrimidin-4-yl)-3-(4-methylpiperazin-1-yl)cyclobutane-1-carboxamide] gave a Ki of 126 to 316 pM. With CN1CCN([C@@H]2CC[C@H](C(=O)Nc3cc(Nc4cc(-c5cc(Cl)ccc5F)nnc4SCCO)ccn3)C2)CC1 (single isomer, unassigned; enantiomer 1) [Example 188, Cis Enantiomer 1 N-(4-{[6-(5-chloro-2-fluorophenyl)-3-[(2-hydroxyethyl)sulfanyl]pyridazin-4-yl]amino}pyridin-2-yl)-3-(4-methylpiperazin-1-yl)cyclopentane-1-carboxamide] the Ki was ≤ 100 pM. For CN1CCN([C@@H]2CC[C@@H](C(=O)Nc3cc(Nc4cc(-c5cc(Cl)ccc5F)nnc4SCCO)ccn3)C2)CC1 (single isomer, unassigned; enantiomer 1) [Example 189, Trans Enantiomer 1 N-(4-{[6-(5-chloro-2-fluorophenyl)-3-[(2-hydroxyethyl)sulfanyl]pyridazin-4-yl]amino}pyridin-2-yl)-3-(4-methylpiperazin-1-yl)cyclopentane-1-carboxamide], the Ki was ≤ 100 pM. In the case of CN1CCN([C@H]2C[C@@H](C(=O)Nc3cc(Nc4cc(-c5cc(Cl)ccc5F)nnc4N(C)CC4(C)CCOC4=O)ncn3)C2)CC1 (single isomer, unassigned; enantiomer 2) [Example 144, Cis Enantiomer 2 N-(6-{[6-(5-chloro-2-fluorophenyl)-3-{methyl[(3-methyl-2-oxooxolan-3-yl)methyl]amino}pyridazin-4-yl]amino}pyrimidin-4-yl)-3-(4-methylpiperazin-1-yl)cyclobutane-1-carboxamide], the Ki is reported as ≤ 100 pM. With COC(=O)[C@H]1CN(c2nnc(-c3cc(Cl)ccc3F)cc2Nc2ccnc(NC(=O)CCN3CCN(C)CC3)c2)CCO1 (stereo in doubt) [Example 133, methyl 4-[6-(5-chloro-2-fluorophenyl)-4-({2-[3-(4-methylpiperazin-1-yl)propanamido]pyridin-4-yl}amino)pyridazin-3-yl]morpholine-2-carboxylate] the Ki was 126 to 316 pM. With CN1CCN(CCC(=O)Nc2cc(Nc3cc(-c4cc(Cl)ccc4F)nnc3N3CCO[C@@H](C(=O)O)C3)ccn2)CC1 (stereo in doubt) [Example 134, 4-[6-(5-chloro-2-fluorophenyl)-4-({2-[3-(4-methylpiperazin-1-yl)propanamido]pyridin-4-yl}amino)pyridazin-3-yl]morpholine-2-carboxylate lithium salt] the Ki was 126 to 316 pM. For CN1CCN(CCC(=O)Nc2cc(Nc3cc(-c4cc(Cl)ccc4F)nnc3OCCO)ccn2)CC1 [Example 1, N-(4-{[6-(5-chloro-2-fluorophenyl)-3-(2-hydroxyethoxy)pyridazin-4-yl]amino}pyridin-2-yl)-3-(4-methylpiperazin-1-yl)propanamide], the Ki was ≤ 100 pM. For CN1CCN(CCOc2ccc3c(Nc4cc(-c5cc(Cl)ccc5F)nnc4OCCO)ccnc3c2)CC1 [Example 2, 2-{[6-(5-chloro-2-fluorophenyl)-4-({7-[2-(4-methylpiperazin-1-yl)ethoxy]quinolin-4-yl}amino)pyridazin-3-yl]oxy}ethan-1-ol], the Ki was ≤ 100 pM.

— patent US20250011299A1, “PYRIDAZINYL AMINO DERIVATIVES AS ALK5 INHIBITORS” (CHIESI FARMACEUTICI S.P.A., priority 2021, published 2025)
